Assay results: patent US7166299B2, “Preparation of aqueous clear solution dosage forms with bile acids” (priority 1998, dated 2007)
“And” between values parts separate entries of the source, which are not always exact repeats. Identical values can stand only once. Like-named read-outs stand apart in the source and are kept apart here.

Columns and labels:
[1] = Hematic levels of UDCA and glyco UDCA after oral administration of 200 mg UDCA aqueous solution to three healthy men (Example VI); assay type: in vivo, human
Method: The aqueous solution dosage forms, according to this invention, containing 200 mg of ursodeoxycholic acid (UDCA), were prepared according to the method described in the above-described Example III and were administered to three healthy men having normal body weight after fasting. The hematic levels of UDCA and glyco UDCA were evaluated by means of well known chemical methods. After applying buffered serum to sep-pak column, methanol eluate was derivatized with phenacyl bromide at 80° C. for 45 minutes. These phenacyl bromide derivatives were dissolved in acetonitrile in preparation for HPLC. The experimental results of the absorption measured at certain times after dosage administration include the total absorption expressed as the area under the serum concentration-time curve (AUC: μg/mL×hours), the maximum hematic concentration (Cmax; μg/mL) that has been obtained, and the time (Tmax; hour) in which said maximum concentration has been obtained.
The experimental pharmacokinetic tests of the aqueous solution dosage forms according to this invention carried out on men show substantial improvement in AUC, Cmax and Tmax in comparison with the best results from any dosage forms known presently.
Table 4A and Table 4B show plasma concentration of UDCA and GUDCA measured in 3 men over time following on oral administration of the UDCA and GUDCA containing formulations according to Example VI and comparison of results against results of others employing different pharmaceutical formulations of UDCA.

[2] = UDCA levels in human after oral administration of liquid solution or syrup containing 600 mg UDCA per day (five subjects); assay type: in vivo; design: unit not given here
Description: FIG. 3: Diagram of the mean(n=5) for group I for pharmacokinetic parameters of UDCA in human after an oral administration of liquid formulation of UDCA prepared according to Example IX without bismuth. FIG. 4: Diagram of the mean(n=5) for group II for pharmacokinetic parameters of UDCA in human after an oral administration of liquid formulation of UDCA prepared according to Example IX. […] Cmax is shown. Five human subjects were provided with dosage forms prepared according to this Example. The results are shown in Tables 5A and 5B and rendered graphically in FIGS. 3 and 4.

[3] = human, oral, Nagamatsu et al. (1997), cited from earlier work
[4] = cited from earlier work
[5] = oral, 200 mg UDCA solution of this invention

## C[C@H](CCC(=O)O)[C@H]1CC[C@H]2[C@@H]3[C@@H](O)C[C@@H]4C[C@H](O)CC[C@]4(C)[C@H]3CC[C@]12C [UDCA, ursodeoxycholic acid (3α-7β-dihydroxy-5β-cholanic acid)]
[1]; male, human, plasma, po, 200 mg, 200 mg UDCA solution of this invention, 0.25 h, three men
  concentration at 0.25 h: 8430 ± 1690 ng/mL
[1]; male, human, plasma, po, 200 mg, 200 mg UDCA solution of this invention, 1 h, three men
  concentration at 1 h: 1150 ± 470 ng/mL
[1]; male, human, plasma, po, 200 mg, 200 mg UDCA solution of this invention, 1.5 h, three men
  concentration at 1.5 h: 320 ± 110 ng/mL
[1]; male, human, plasma, po, 200 mg, oral, 200 mg UDCA solution of this invention, 0.5 h, three men, read-out: Plasma concentration, mean
  concentration at 0.5 h: 6550 ± 1050 ng/mL
[1]; male, human, plasma, po, 200 mg, oral, 200 mg UDCA solution of this invention, 0.5 h, read-out: Plasma concentration, individual men #1-#3
  concentration at 0.5 h: 4450 ng/mL
[1]; male, human, plasma, po, 200 mg, oral, 200 mg UDCA solution of this invention, 2 h, three men, read-out: Plasma concentration, mean
  concentration at 2 h: 190 ± 30 ng/mL
[1]; male, human, plasma, po, 200 mg, oral, 200 mg UDCA solution of this invention, 2 h, read-out: Plasma concentration, individual men #1-#3
  concentration at 2 h: 235 ng/mL
[1]; male, human, plasma, po, 200 mg, oral, 200 mg UDCA solution of this invention, 3 h, three men, read-out: Plasma concentration, mean
  concentration at 3 h: 170 ± 40 ng/mL
[1]; male, human, plasma, po, 200 mg, oral, 200 mg UDCA solution of this invention, 3 h, read-out: Plasma concentration, individual men #1-#3
  concentration at 3 h: 124 ng/mL
[1]; male, human, plasma, po, 200 mg, oral, 200 mg UDCA solution of this invention, three men, read-out: AUC, mean
  AUC: 5460 ± 660 ng·h/mL
[1]; male, human, plasma, po, 200 mg, oral, 200 mg UDCA solution of this invention, read-out: AUC, individual men #1-#3
  AUC: 4320 ng·h/mL
[1]; male, human, plasma, po, 200 mg, oral, 200 mg UDCA solution of this invention, read-out: Tmax, individual men #1-#3
  Tmax: 15 min
[1]; male, human, serum, po, 200 mg, oral, 200 mg UDCA solution of this invention, three men, read-out: Cmax, mean
  Cmax: 8430 ± 1690 ng/mL
[1]; male, human, serum, po, 200 mg, oral, 200 mg UDCA solution of this invention, three men, read-out: Tmax, mean
  Tmax: 15 min
[1]; [5]
  AUC, individual men #1-#3: 6600 ng·h/mL and 5470 ng·h/mL
  Cmax, individual men #1-#3: 5210 ng/mL and 10920 ng/mL and 9160 ng/mL
[1]; oral, 200 mg UDCA solution of this invention, 0.25 h
  Plasma concentration, individual men #1-#3: 5120.2 ng/mL and 10917.1 ng/mL and 9159 ng/mL
[1]; oral, 200 mg UDCA solution of this invention, 0.5 h
  Plasma concentration, individual men #1-#3: 7743.2 ng/mL and 7439.5 ng/mL
[1]; oral, 200 mg UDCA solution of this invention, 1 h
  Plasma concentration, individual men #1-#3: 1692.1 ng/mL and 1546 ng/mL and 216.3 ng/mL
[1]; oral, 200 mg UDCA solution of this invention, 1.5 h
  Plasma concentration, individual men #1-#3: 525.6 ng/mL and 275.9 ng/mL and 168 ng/mL
[1]; oral, 200 mg UDCA solution of this invention, 2 h
  Plasma concentration, individual men #1-#3: 217.6 ng/mL and 122.7 ng/mL
[1]; oral, 200 mg UDCA solution of this invention, 3 h
  Plasma concentration, individual men #1-#3: 207.4 ng/mL
[1]; oral, 200 mg, men
  Cmax compared with enteric coated sodium salt of UDCA preparations: at least two times higher
  Cmax compared with regular UDCA tablet preparations: four times higher
  Tmax compared with the fastest Tmax previously known: at least three times faster
[2]; Table 5A: human, oral liquid solution containing 600 mg UDCA per day, 0 min
  UDCA level, Average: 0.618
[2]; Table 5A: human, oral liquid solution containing 600 mg UDCA per day, 5 min
  UDCA level, Average: 4.578
[2]; Table 5A: human, oral liquid solution containing 600 mg UDCA per day, 15 min
  UDCA level, Average: 20.394
[2]; Table 5A: human, oral liquid solution containing 600 mg UDCA per day, 60 min
  UDCA level, Average: 10.202
[2]; Table 5A: human, oral liquid solution containing 600 mg UDCA per day, 120 min
  UDCA level, Average: 2.168
[2]; Table 5A: human, oral liquid solution containing 600 mg UDCA per day, 240 min
  UDCA level, Average: 0.772
[2]; Table 5B: human, oral syrup containing 600 mg UDCA per day, 0 min
  UDCA level, Average: 0.398
[2]; Table 5B: human, oral syrup containing 600 mg UDCA per day, 5 min
  UDCA level, Average: 1.976
[2]; Table 5B: human, oral syrup containing 600 mg UDCA per day, 15 min
  UDCA level, Average: 7.144
[2]; Table 5B: human, oral syrup containing 600 mg UDCA per day, 60 min
  UDCA level, Average: 15.000
[2]; Table 5B: human, oral syrup containing 600 mg UDCA per day, 120 min
  UDCA level, Average: 4.820
[2]; Table 5B: human, oral syrup containing 600 mg UDCA per day, 240 min
  UDCA level, Average: 1.258
[3]; 200 mg
  Cmax (M ± S.E.): 1900 ± 250 ng/mL
  Tmax (M ± S.E.): 90 ± 24 min
[3]; 400 mg
  Cmax (M ± S.E.): 7090 ± 1430 ng/mL
  Tmax (M ± S.E.): 48 ± 12 min
[4]
  solubility in the gastric juices and in aqueous hydrochloric acid solution: especially insoluble
  solubility in the gastric pH range: no longer soluble
  solubility in water: practically insoluble
